Legend:
OVCAR-5 = test: NCI 60 cell line panel (SRB), OVCAR-5; format: cell-based; conditions: Homo sapiens; OVCAR-5, Ovarian Cancer; single dose of 10 μM; read-out: Cell Growth Percent
M14 = test: NCI 60 cell line panel (SRB), M14; format: cell-based; conditions: Homo sapiens; M14, Melanoma; single dose of 10 μM; read-out: Cell Growth Percent
SN12C = test: NCI 60 cell line panel (SRB), SN12C; format: cell-based; conditions: Homo sapiens, Renal Cancer, single dose of 10 μM, read-out: Cell Growth Percent
KM12 = test: NCI 60 cell line panel (SRB), KM12; format: cell-based; conditions: Homo sapiens; KM12, Colon Cancer; single dose of 10 μM; read-out: Cell Growth Percent
786-0 = test: NCI 60 cell line panel (SRB), 786-0; format: cell-based; conditions: Homo sapiens; 786-0, Renal Cancer; single dose of 10 μM; read-out: Cell Growth Percent
MALME-3M = test: NCI 60 cell line panel (SRB), MALME-3M; format: cell-based; conditions: Homo sapiens, Melanoma, single dose of 10 μM, read-out: Cell Growth Percent
TK-10 = test: NCI 60 cell line panel (SRB), TK-10; format: cell-based; conditions: Homo sapiens; TK-10, Renal Cancer; single dose of 10 μM; read-out: Cell Growth Percent
HS 578T = test: NCI 60 cell line panel (SRB), HS 578T; format: cell-based; conditions: Homo sapiens, Breast Cancer, single dose of 10 μM, read-out: Cell Growth Percent
SR = test: NCI 60 cell line panel (SRB), SR; format: cell-based; conditions: Homo sapiens, Leukemia, single dose of 10 μM, read-out: Cell Growth Percent
SF-539 = test: NCI 60 cell line panel (SRB), SF-539; format: cell-based; conditions: Homo sapiens; SF-539, CNS Cancer; single dose of 10 μM; read-out: Cell Growth Percent
HCT-116 = test: NCI 60 cell line panel (SRB), HCT-116; format: cell-based; conditions: Homo sapiens; HCT-116, Colon Cancer; single dose of 10 μM; read-out: Cell Growth Percent
K-562 = test: NCI 60 cell line panel (SRB), K-562; format: cell-based; conditions: Homo sapiens, K562; K-562, Leukemia; single dose of 10 μM; read-out: Cell Growth Percent
SK-MEL-5 = test: NCI 60 cell line panel (SRB), SK-MEL-5; format: cell-based; conditions: Homo sapiens; SK-MEL-5, Melanoma; single dose of 10 μM; read-out: Cell Growth Percent
SK-MEL-28 = test: NCI 60 cell line panel (SRB), SK-MEL-28; format: cell-based; conditions: Homo sapiens; SK-MEL-28, Melanoma; single dose of 10 μM; read-out: Cell Growth Percent
IGROV1 = test: NCI 60 cell line panel (SRB), IGROV1; format: cell-based; conditions: Homo sapiens, IGROV-1; IGROV1, Ovarian Cancer; single dose of 10 μM; read-out: Cell Growth Percent
NCI-H460 = test: NCI 60 cell line panel (SRB), NCI-H460; format: cell-based; conditions: Homo sapiens; NCI-H460, Non-Small Cell Lung Cancer; single dose of 10 μM; read-out: Cell Growth Percent
BT-549 = test: NCI 60 cell line panel (SRB), BT-549; format: cell-based; conditions: Homo sapiens; BT-549, Breast Cancer; single dose of 10 μM; read-out: Cell Growth Percent
NCI-H322M = test: NCI 60 cell line panel (SRB), NCI-H322M; format: cell-based; conditions: Homo sapiens, Non-Small Cell Lung Cancer, single dose of 10 μM, read-out: Cell Growth Percent
MDA-MB-468 = test: NCI 60 cell line panel (SRB), MDA-MB-468; format: cell-based; conditions: Homo sapiens; MDA-MB-468, Breast Cancer; single dose of 10 μM; read-out: Cell Growth Percent
UACC-62 = test: NCI 60 cell line panel (SRB), UACC-62; format: cell-based; conditions: Homo sapiens; UACC-62, Melanoma; single dose of 10 μM; read-out: Cell Growth Percent
MDA-MB-435 = test: NCI 60 cell line panel (SRB), MDA-MB-435; format: cell-based; conditions: Homo sapiens; MDA-MB-435, Melanoma; single dose of 10 μM; read-out: Cell Growth Percent
A549/ATCC = test: NCI 60 cell line panel (SRB), A549/ATCC; format: cell-based; conditions: Homo sapiens, Non-Small Cell Lung Cancer, single dose of 10 μM, read-out: Cell Growth Percent
SNB-75 = test: NCI 60 cell line panel (SRB), SNB-75; format: cell-based; conditions: Homo sapiens; SNB-75, CNS Cancer; single dose of 10 μM; read-out: Cell Growth Percent
SNB-19 = test: NCI 60 cell line panel (SRB), SNB-19; format: cell-based; conditions: Homo sapiens; SNB-19, CNS Cancer; single dose of 10 μM; read-out: Cell Growth Percent
MOLT-4 = test: NCI 60 cell line panel (SRB), MOLT-4; format: cell-based; conditions: Homo sapiens; MOLT-4, Leukemia; single dose of 10 μM; read-out: Cell Growth Percent

Compound	activity at 10 µM (OVCAR-5)	activity at 10 µM (M14)	activity at 10 µM (SN12C)	activity at 10 µM (KM12)	activity at 10 µM (786-0)	activity at 10 µM (MALME-3M)	activity at 10 µM (TK-10)	activity at 10 µM (HS 578T)	activity at 10 µM (SR)	activity at 10 µM (SF-539)	activity at 10 µM (HCT-116)	activity at 10 µM (K-562)	activity at 10 µM (SK-MEL-5)	activity at 10 µM (SK-MEL-28)	activity at 10 µM (IGROV1)	activity at 10 µM (NCI-H460)	activity at 10 µM (BT-549)	activity at 10 µM (NCI-H322M)	activity at 10 µM (MDA-MB-468)	activity at 10 µM (UACC-62)	other results
O=C(Nc1ccc(Nc2ncnc3sc4c(c23)CCCC4)cc1)Nc1cccc(Cl)c1 [Compound 20d]	108%	99.3%	102%	105%	103%	97.9%	108%	103%	102%	90.8%	112%	110%	98.1%	104%	113%	110%	100%	104%	110%	106%	activity at 10 µM (MDA-MB-435): 104%; activity at 10 µM (A549/ATCC): 74.2%; activity at 10 µM (SNB-75): 94.4%; activity at 10 µM (SNB-19): 108%; activity at 10 µM (MOLT-4): 92.3%
CCOC(=O)c1c(C)oc2ncnc(Nc3ccc(NC(=O)Nc4ccc(CC)cc4)cc3)c12 [Compound 15i]	107%	99.9%	107%	103%	99.8%	101%	112%	97.7%	81.6%	89%	78.7%	98%	93.7%	105%	110%	106%	84.4%	102%	128%	108%	melting point: 242 to 246 °C; activity at 10 µM (MDA-MB-435): 102%; activity at 10 µM (A549/ATCC): 89.2%; activity at 10 µM (SNB-75): 80.5%; activity at 10 µM (SNB-19): 97.9%; activity at 10 µM (MOLT-4): 98.6%
CCOC(=O)c1c(C)oc2ncnc(Nc3ccc(C(=O)Nc4ccc(OC)cc4)cc3)c12 [Compound 14b]	114%	101%	103%	96.1%	92.1%	120%	102%	83.7%	74.6%	63.8%	85.1%	107%	87.9%	95.2%	108%	97%	61.9%	112%	102%	93.4%	melting point: 218 to 222 °C; activity at 10 µM (MDA-MB-435): 106%; activity at 10 µM (A549/ATCC): 93.3%; activity at 10 µM (SNB-75): 87.2%; activity at 10 µM (SNB-19): 108%; activity at 10 µM (MOLT-4): 92.3%
O=C(Nc1ccc(Cl)cc1)Nc1ccc(Oc2ncnc3sc4c(c23)CCCC4)cc1 [Compound 21d]	113%	87%	86.5%	69.1%	108%	98.9%	88.3%	74.7%	72.4%	70.9%	82.6%	84.2%	78.4%	92.6%	108%	82.1%	112%	103%	103%	73.2%	melting point: > 300 °C; activity at 10 µM (MDA-MB-435): 93.7%; activity at 10 µM (A549/ATCC): 66.6%; activity at 10 µM (SNB-75): 70.8%; activity at 10 µM (SNB-19): 79.5%; activity at 10 µM (MOLT-4): 72%
O=C(Nc1ccccc1)Nc1ccc(Nc2ncnc3sc4c(c23)CCCC4)cc1 [Compound 20a]	119%	103%	99.2%	102%	110%	102%	124%	85.3%	97.8%	104%	114%	99.7%	97.3%	116%	107%	104%	109%	106%	96.8%	97.8%	activity at 10 µM (MDA-MB-435): 112%; activity at 10 µM (A549/ATCC): 73.8%; activity at 10 µM (SNB-75): 93.3%; activity at 10 µM (SNB-19): 95.9%; activity at 10 µM (MOLT-4): 89.4%
COc1cccc(NC(=O)Nc2ccc(Nc3ncnc4sc5c(c34)CCCC5)cc2)c1 [Compound 20c]	106%	89.8%	91%	89.6%	100%	79.9%	129%	74.4%	84.6%	60.2%	91%	97.2%	92.3%	93.3%	106%	106%	85.8%	98.8%	114%	106%	melting point: 206 to 210 °C; activity at 10 µM (MDA-MB-435): 98.5%; activity at 10 µM (A549/ATCC): 78.3%; activity at 10 µM (SNB-75): 62.7%; activity at 10 µM (SNB-19): 95.2%; activity at 10 µM (MOLT-4): 81.3%
CCOC(=O)c1c(C)oc2ncnc(Nc3ccc(C(=O)NCCc4ccccc4)cc3)c12 [Compound 14e]	110%	81.2%	99.3%	89%	74.9%	89.5%	102%	51.2%	89.2%	58.9%	64.7%	88.9%	85.6%	87.8%	102%	82.9%	67.3%	92.9%	90.7%	94.9%	melting point: 176 to 180 °C; activity at 10 µM (MDA-MB-435): 87.5%; activity at 10 µM (A549/ATCC): 56.6%; activity at 10 µM (SNB-75): 7%; activity at 10 µM (SNB-19): 84%; activity at 10 µM (MOLT-4): 105%
CCOC(=O)c1c(C)oc2ncnc(Nc3ccc(NC(=O)Nc4cccc(Cl)c4)cc3)c12 [Compound 15d]	122%	48.6%	73.9%	61%	79.1%	81.4%	79.1%	80.6%	53.6%	16.6%	50.7%	67.7%	52.9%	61.8%	78.4%	67.1%	61.5%	83.5%	49.7%	69.1%	activity at 10 µM (MDA-MB-435): 65.8%; activity at 10 µM (A549/ATCC): 32.3%; activity at 10 µM (SNB-75): 70.6%; activity at 10 µM (SNB-19): 84.6%; activity at 10 µM (MOLT-4): 49.2%

From paper PMC4832243, “Discovery of Potent VEGFR-2 Inhibitors based on Furopyrimidine and Thienopyrimidne Scaffolds as Cancer Targeting Agents” (Scientific Reports, 2016)
